Article PMC12521527, “In vivo self-assembled nano-PROTAC for the dual degradation of AR and HSP90 to overcome castration-resistant prostate cancer resistance” (Signal Transduction and Targeted Therapy, 2025)

Tested on: 22Rv1 xenograft tumor
Test: Antitumor efficacy in 22Rv1 xenograft mice
Assay type: in vivo, BALB/c nude mice
Details: comparison study, n = 6; for tumor volume: 20 days, Psa-AR 30 mg/kg i.v. every 2 days x5, enzalutamide 25 mg/kg, pimitespib 15 mg/kg, PBS 1017 mm^3; for median survival: PBS 21 days
From the text: To evaluate the therapeutic potential and superiority of Psa-AR in prostate cancer, we established subcutaneous xenograft tumor models using AR-mutant 22Rv1 cells.[51] All procedures strictly complied with the Guide for the Care and Use of Laboratory Animals and were approved by the Committee for Animal Research of the National Center for Nanoscience and Technology. When the tumor volume reached ~100 mm³, 22Rv1-bearing mice were randomized into three groups (n = 6/group): the PBS control, Psa-AR, and P-AR groups. Treatments were administered via tail vein injection every other day for five cycles. The tumor volume and body weight were monitored every other day for 20 days (Fig. 6a). […] The individual tumor growth curves for each group are presented in Supplementary Fig. 20. No obvious body weight loss was observed during treatment (Fig. 6c). […] To elucidate the mechanistic basis of tumor suppression, we quantitatively assessed AR and HSP90 protein expression in excised tumor tissues through IF. […] This dual-target degradation profile directly correlates with the observed therapeutic efficacy, validating the assembly driven target engagement and degradation strategy. […] To address the critical limitations of conventional PROTACs, particularly the Hook effect-induced nonlinear pharmacokinetics and narrow therapeutic window. We rigorously evaluated the dose-responsive antitumor efficacy of Psa-AR in 22Rv1 xenograft models. Mice bearing subcutaneous tumors received escalating doses (10, 20, or 30 mg/kg) via intravenous administration every 48 h for five consecutive treatment cycles. The tumor volume and body weight were evaluated for 20 days. Tumor volume was suppressed in a dose-dependent manner, with a mean tumor volume of […], a mean tumor volume of 536 mm^3 at 20 mg/kg and a mean tumor volume of 220 mm^3 at 10 mg/kg (Fig. 6h). The individual tumor growth curves for each group are presented in Supplementary Fig. 21. […] IF analysis of tumor sections provided spatially resolved dose-dependent quantification of AR and HSP90 proteolysis. […] Collectively, the dose-dependent tumor suppression and coordinated target proteolysis observed in the 22Rv1 xenograft model mechanistically validated the therapeutic superiority of in situ self-assembled Psa-AR. To systematically evaluate the therapeutic advantages of the dual-protein targeting strategy of Psa-AR through simultaneous degradation of AR and HSP90 in overcoming tumor drug resistance, this study compared the antitumor efficacy of Psa-AR with that of current clinical regimens (including the AR inhibitor enzalutamide, the HSP90 inhibitor pimitespib, and their combination) in 22Rv1 xenograft models (Fig. 7a). The experimental protocol was designed as follows: When the tumor volume reached ~100 mm³, the tumor-bearing mice were
Fig. 6 In vivo antitumor efficacy of Psa-AR. a Schematic illustration of the tumor inoculation and treatment protocol for 22Rv1 xenograft mice. (n = 6 per group) b Observation of the tumor inhibitory effect on 22Rv1 xenograft mice in PBS, P-AR, or Psa-AR (20 mg/kg in 200 μL of PBS) over 20 days of treatment. c Body weight changes in 22Rv1 xenograft mice in different treatment groups over 20 days. d Kaplan‒Meier survival curves of 22Rv1 xenograft mice in different groups over 20 days of treatment. e Immunofluorescence analysis of AR protein levels in 22Rv1 tumor tissues after treatment with PBS, P-AR, or Psa-AR (20 mg/kg in 200 μL of PBS) for 20 days. Scale bar: 20 μm. f Immunofluorescence analysis of the HSP90 protein levels in 22Rv1 tumor tissues after treatment with PBS, P-AR, or Psa-AR (20 mg/kg in 200 μL of PBS) for 20 days. Scale bar: 20 μm. g Terminal deoxynucleotidyl transferase (TdT) dUTP nick-end labeling (TUNEL) staining of tumors after treatment with PBS, P-AR, or Psa-AR (20 mg/kg in 200 μL of PBS) for 20 days. […]

`CCc1cc(C(N)=O)ccc1-n1nc(C(C)C)c2c(-n3cnc(-c4cnn(C)c4)c3)ccnc21` [pimitespib, reference compound] showed a tumor volume of 742 mm^3 and a median survival of 29 days.

`CNC(=O)c1ccc(N2C(=S)N(c3ccc(C#N)c(C(F)(F)F)c3)C(=O)C2(C)C)cc1F` [enzalutamide, reference compound] was tested, and the tumor volume was 765 mm^3 and the median survival was 27 days.
